According to patent US20120141479A1, “Histone Deacetylase Inhibitors Sensitize Cancer Cells To Epidermal Growth Factor Inhibitors” (priority 2007, published 2012):

Key:
NSCLC patients = conditions: single agent, phase I studies including chemotherapy resistant NSCLC patients; cited from earlier work
[1] = tested on: FaDu head & neck cancer cell line; assay: Modified MTT growth inhibition assay; type: cell-based
Description: (§1) Combination administrations were performed as sequential treatments where the HDAC inhibitor was administer prior to the EGFR inhibitor, or simultaneous treatments in selected cell lines. Concentrations of HDAC inhibitors and EGFR inhibitors are indicated as μM concentrations in all experiments. SNDX275 was administered in three increasing concentrations, with a variety of ranges depending upon the cell line.
(§2) Drugs were diluted in fresh medium before each experiment, and the final DMSO concentration was <0.1%. Growth inhibition was assessed using a modified MTT assay. 2×10^3 cells were plated in each well of 96-well flat-bottomed microtiter plates and drugs were added the next day. […] The microtiter plates were incubated for 4 hours at 37° C. The visible absorbance of each well was measured using an automated plate reader (Molecular Devices, Sunnyvale, Calif.), and data were analyzed using SlideWrite to determine the drug IC50.

[2] = tested on: Panc03.27 pancreatic cancer cell line; assay: Modified MTT growth inhibition assay; type: cell-based; conditions: Panc 03.27, both drugs added at the same time
Description: as §1, §2

[3] = tested on: MSK2922 head & neck cancer cell line; assay: Modified MTT growth inhibition assay; type: cell-based; conditions: SNDX275 added as first drug
Description: as §1, §2

[4] = tested on: HPAFII pancreatic cancer cell line; assay: Modified MTT growth inhibition assay; type: cell-based; conditions: SNDX275 added as first drug
Description: as §1, §2

[5] = tested on: 584 head & neck cancer cell line; assay: Modified MTT growth inhibition assay; type: cell-based; conditions: SNDX275 added as first drug
Description: as §1, §2

[6] = tested on: 1483 head & neck cancer cell line; assay: Modified MTT growth inhibition assay; type: cell-based; conditions: SNDX275 added as first drug
Description: as §1, §2

[7] = tested on: Panc04.03 pancreatic cancer cell line; assay: Modified MTT growth inhibition assay; type: cell-based; conditions: Panc 04.03
Description: as §1, §2

[8] = tested on: UMSCC19 head & neck cancer cell line; assay: Modified MTT growth inhibition assay; type: cell-based
Description: as §1, §2

[9] = tested on: HS766T pancreatic cancer cell line; assay: Modified MTT growth inhibition assay; type: cell-based
Description: as §1, §2

[10] = tested on: Panc02.03 pancreatic cancer cell line; assay: Modified MTT growth inhibition assay; type: cell-based; conditions: Panc 02.03
Description: as §1, §2

[11] = tested on: UMSCC22B head & neck cancer cell line; assay: Modified MTT growth inhibition assay; type: cell-based
Description: as §1, §2

[12] = tested on: Detroit562 head & neck cancer cell line; assay: Modified MTT growth inhibition assay; type: cell-based
Description: as §1, §2

A549 NSCLC cell line = assay: Apoptosis and cell death analysis; type: cell-based; conditions: 10 μM gefitinib
Description: The effect of gefitinib on inducing apoptosis and cell death in NSCLC cell lines sensitive and resistant to gefitinib was evaluated. […].

H157 NSCLC cell line = assay: Apoptosis and cell death analysis; type: cell-based; conditions: 10 μM gefitinib
Description: (§3) The effect of gefitinib on inducing apoptosis and cell death in NSCLC cell lines sensitive and resistant to gefitinib was evaluated. […] Expression of E-cad was evaluated in these cell lines.

H460 NSCLC cell line = assay: Apoptosis and cell death analysis; type: cell-based; conditions: 10 μM gefitinib
Description: as §3

H520 NSCLC cell line = assay: Apoptosis and cell death analysis; type: cell-based; conditions: 10 μM gefitinib
Description: as §3

E-cad = conditions: lung cancer cell lines; cited from earlier work
EGFR = EGFR phosphorylation in E-cad transfected H157 cell lines; type: cell-based; conditions: E-cad transfected H157 cell lines treated with EGF
Description: Cell Culture, Drugs and MTS assay. Twenty NSCLC cell lines were used: squamous (NCI-H157, HCC95, HCC15 and H441), large-cell (H460, H1299, H2126 and H1264, a derivative of H460), adeno (Calu3, A549, H2122, H1648, H520, HCC78, HCC193, H2009, HCC44 and H3255) and bronchioalveolar (H358 and H322). The NSCLC cell lines, HCC78, H2126, HCC95, H1299, HCC193, HCC44, HCC15, H2009 were obtained from UTSW and the H3255 was a gift from Dr. Bruce Johnson. All lines were cultured in RPMI medium 1640 under standard conditions. […] The drugs were diluted in fresh media before each experiment, and the final dimethyl sulfoxide concentration was <0.1%. […] Growth inhibition was assessed by MTS (3-(4,5-dimethylthiazol-2-yl)-5-(3-carboxymethoxyphenyl)-2-(4-sulfophenyl)2H-tetrazolium, inner salt) assay (Promega, Madison, Wis.). […] The absorbency of each well is measured using an automated plate reader. The data was analyzed using a SlideWrite program to determine the IC50 of the drug. […] After sonication, the Bradford assay was used for protein quantification. […]
The effect of E-cad on NSCLC cell lines apoptotic response to gefitinib was assessed by transfecting a gefitinib-resistant cell line, H157, with an E-cad-encoding adenovirus. […] Higher expression of E-cad was detected in the H157-E-cad-3 cell line compared to the H157-E-cad-3 cell line. […]

[13] = erlotinib 0.06 μM alone, SNDX275 added as first drug
[14] = erlotinib 0.06 μM alone, both drugs added at the same time
[15] = erlotinib 3.00 μM alone, SNDX275 added as first drug
[16] = erlotinib 3.00 μM alone, both drugs added at the same time
[17] = erlotinib 0.3 μM alone, SNDX275 added as first drug
[18] = erlotinib 0.3 μM alone, both drugs added at the same time
[19] = erlotinib 2.0 μM alone, SNDX275 added as first drug
[20] = erlotinib 2.0 μM alone, both drugs added at the same time
[21] = erlotinib 6.0 μM alone, SNDX275 added as first drug
[22] = erlotinib 6.0 μM alone, both drugs added at the same time
[23] = erlotinib 10.0 μM alone, both drugs added at the same time

Question: With `C#Cc1cccc(Nc2ncnc3cc(OCCOC)c(OCCOC)cc23)c1` [erlotinib] as the compound, how does the response rates (NSCLC patients) read?
Answer: about 10%

Question: What about the surviving [1, 13] of the same compound?
Answer: 83.931%

Question: And the surviving [1, 14]?
Answer: 98.703%

Question: And the surviving ([1]; erlotinib 0.30 μM alone, SNDX275 added as first drug)?
Answer: 49.364%

Question: What about the surviving ([1]; erlotinib 0.30 μM alone, both drugs added at the same time) of the same compound?
Answer: 55.823%

Question: What about the surviving [1, 15] of the same compound?
Answer: 24.489%

Question: And the surviving [1, 16]?
Answer: 27.463%

Question: What about the surviving ([2]; erlotinib 0.03 μM alone) of the same compound?
Answer: 73.670%

Question: What about the surviving ([2]; erlotinib 0.60 μM alone) of the same compound?
Answer: 43.685%

Question: What about the surviving ([2]; erlotinib 6.00 μM alone) of the same compound?
Answer: 19.177%

Question: And the surviving ([3]; erlotinib 0.5 μM alone)?
Answer: 76.960%

Question: And the surviving ([3]; erlotinib 5.0 μM alone)?
Answer: 49.683%

Question: And the surviving ([3]; erlotinib 10.0 μM alone)?
Answer: 16.390%

Question: What about the surviving ([4]; erlotinib 0.03 μM alone) of the same compound?
Answer: 79.346%

Question: And the surviving ([4]; erlotinib 1.00 μM alone)?
Answer: 49.804%

Question: And the surviving ([4]; erlotinib 6.00 μM alone)?
Answer: 28.170%

Question: And the surviving ([5]; erlotinib 3.0 μM alone)?
Answer: 70.581%

Question: And the surviving ([5]; erlotinib 7.0 μM alone)?
Answer: 49.941%

Question: What about the surviving ([5]; erlotinib 10.0 μM alone) of the same compound?
Answer: 25.563%

Question: What about the surviving ([6]; erlotinib 6.0 μM alone) of the same compound?
Answer: 67.497%

Question: What about the surviving ([6]; erlotinib 8.0 μM alone) of the same compound?
Answer: 52.894%

Question: And the surviving ([6]; erlotinib 10.0 μM alone)?
Answer: 43.652%

Question: What about the surviving [7, 17] of the same compound?
Answer: 77.213%

Question: And the surviving [7, 18]?
Answer: 65.993%

Question: And the surviving [7, 19]?
Answer: 53.936%

Question: What about the surviving [7, 20] of the same compound?
Answer: 63.603%

Question: What about the surviving [7, 21] of the same compound?
Answer: 30.300%

Question: And the surviving [7, 22]?
Answer: 47.335%

Question: What about the surviving ([8]; erlotinib 0.03 μM alone, SNDX275 added as first drug (first table)) of the same compound?
Answer: 70.495%

Question: What about the surviving ([8]; erlotinib 0.03 μM alone, SNDX275 added as first drug (second table)) of the same compound?
Answer: 89.125%

Question: What about the surviving ([8]; erlotinib 2.00 μM alone, SNDX275 added as first drug (first table)) of the same compound?
Answer: 40.636%

Question: What about the surviving ([8]; erlotinib 2.00 μM alone, SNDX275 added as first drug (second table)) of the same compound?
Answer: 49.820%

Question: What about the surviving ([8]; erlotinib 6.00 μM alone, SNDX275 added as first drug (first table)) of the same compound?
Answer: 22.618%

Question: What about the surviving ([8]; erlotinib 6.00 μM alone, SNDX275 added as first drug (second table)) of the same compound?
Answer: 29.934%

Question: And the surviving ([9]; erlotinib 1.0 μM alone, SNDX275 added as first drug)?
Answer: 71.523%

Question: What about the surviving ([9]; erlotinib 1.0 μM alone, both drugs added at the same time) of the same compound?
Answer: 77.921%

Question: And the surviving [9, 21]?
Answer: 49.547%

Question: And the surviving [9, 22]?
Answer: 46.785%

Question: And the surviving [9, 23]?
Answer: 37.138%

Question: And the surviving [10, 17]?
Answer: 63.194%

Question: What about the surviving [10, 18] of the same compound?
Answer: 54.857%

Question: What about the surviving [10, 19] of the same compound?
Answer: 53.632%

Question: And the surviving [10, 20]?
Answer: 53.313%

Question: What about the surviving [10, 21] of the same compound?
Answer: 27.404%

Question: What about the surviving [10, 22] of the same compound?
Answer: 36.701%

Question: What about the surviving ([11]; erlotinib 3.0 μM alone, SNDX275 added as first drug) of the same compound?
Answer: 79.839%

Question: And the surviving ([11]; erlotinib 3.0 μM alone, both drugs added at the same time)?
Answer: 78.643%

Question: What about the surviving ([11]; erlotinib 7.0 μM alone, SNDX275 added as first drug) of the same compound?
Answer: 53.060%

Question: And the surviving ([11]; erlotinib 7.0 μM alone, both drugs added at the same time)?
Answer: 56.412%

Question: What about the surviving ([11]; erlotinib 10.0 μM alone, SNDX275 added as first drug) of the same compound?
Answer: 29.839%

Question: And the surviving [11, 23]?
Answer: 49.762%

Question: What about the surviving [12, 13] of the same compound?
Answer: 81.459%

Question: And the surviving [12, 14]?
Answer: 73.569%

Question: What about the surviving ([12]; erlotinib 0.60 μM alone, SNDX275 added as first drug) of the same compound?
Answer: 56.459%

Question: What about the surviving ([12]; erlotinib 0.60 μM alone, both drugs added at the same time) of the same compound?
Answer: 40.826%

Question: What about the surviving [12, 15] of the same compound?
Answer: 28.582%

Question: What about the surviving [12, 16] of the same compound?
Answer: 17.946%

Question: Which response rates (NSCLC patients) does the source give for `COc1cc2ncnc(Nc3ccc(F)c(Cl)c3)c2cc1OCCCN1CCOCC1` [gefitinib] here?
Answer: about 10%

Question: And the “apoptotic or necrotic effect” value (A549 NSCLC cell line)?
Answer: no apoptotic or necrotic effect

Question: And the “apoptotic or necrotic effect” value (H157 NSCLC cell line)?
Answer: no apoptotic or necrotic effect

Question: And the “apoptotic or necrotic effect” value (H460 NSCLC cell line)?
Answer: no apoptotic or necrotic effect

Question: What about the “apoptotic or necrotic effect” value (H520 NSCLC cell line) of the same compound?
Answer: no apoptotic or necrotic effect

Question: With `CC(/C=C/C(=O)NO)=C\[C@@H](C)C(=O)c1ccc(N(C)C)cc1` [trichostatin A] as the compound, how does the “effect of inhibiting HDAC on E-cad” value (E-cad) read?
Answer: activation of E-cad

Question: Which “increase in EGFR phosphorylation” value (EGFR) does the source give for “EGF: Epidermal growth factor purchased from R&D Systems Inc. (NSDSECPLSHDGYCLHDGVCMYIEALDKYACNCVVGYIGERCQYRDLKWWELR; Epidermal growth factor; UniProt P01133 971-1023, looked up)” here?
Answer: two fold increase
